Source: patent US20260007634A1, “PHARMACEUTICAL COMPOSITIONS FOR THE TREATMENT OF ALLERGIC DISEASES” (KINKI UNIVERSITY, priority 2022, published 2026)

How the values were obtained:
IgE antibody = experiment: Serum IgE antibody ELISA, atopic dermatitis mice; format: in vivo, mouse; settings: day 7, topical application, control 1214, vehicle (MC903) 2588
Method: (§1) MC903 at 2 nM was applied to the right auricle of a 6-week-old male Balb/c (Japan SLC Inc.). Starting 8 h later, 5% norathyriol aqueous solution (1 mL of ethanol containing […] of norathyriol), betamethasone ointment, and delgocitinib ointment were applied to the auricle for 7 days. The measurement of auricular skin swelling was calculated by calipers. The day on which the first application of the compound was made was defined as day 0. Betamethasone and delgocitinib are currently in clinical use in atopic dermatitis and were used as control drugs in this example.
Serum was collected from mice on day 7 in Example 1, and IgE antibody production was measured by enzyme-linked immunosorbent assay (ELISA). This assay was performed using a mouse IgE antibody ELISA kit (R&D).

TNFα = experiment: LPS-stimulated TNFα secretion in macrophages (ELISA); format: cell-based, mouse; settings: 10 μM compound, 10 μg/mL LPS 2 days, control 24.11, LPS 421.13
Method: Mouse macrophages were used to examine the inhibition of compounds on TNFα secretion in LPS stimulation.
Mouse macrophages were cultured in RPMI 1640 medium for 1 day. Then, 10 μM mangiferin 8a and 10 μM norathyriol were added to macrophages, and after 1 day of culture, 10 μg/mL of LPS was added to each, followed by 2 days of culture.
Thus, the samples were divided into “control” with no treatment, “10 μg/mL LPS+10 μM mangiferin 8a” to which 10 μg/mL LPS and 10 μM mangiferin 8a were added, and “10 μg/mL LPS+10 μM norathyriol” to which 10 μg/mL LPS and 10 μM norathyriol were added and only 10 μg/mL LPS was added (“[…] LPS”).
After these samples were incubated for 2 days, the culture supernatant was collected and TNFα secretion was measured by enzyme-linked immunosorbent assay (ELISA). The mouse TNFα ELISA kit (R&D) was used for this measurement.

IL-6 = experiment: BAFF-induced IL-6 secretion in B cells (ELISA); format: cell-based, mouse; settings: DBA/1J spleen B cells; 10 μM compound, 100 ng/mL BAFF, 7 days; control 26.06, BAFF only 454.47
Method: Spleens were harvested from 6-week-old male DBA/1J mice and B cells were isolated. After isolation, the cells were cultured in RPMI 1640 medium for 1 day. Then, 10 μM mangiferin 8a and 10 μM norathyriol were added to B cells, and 100 ng/mL of BAFF was added to each 3 h later, and the cells were cultured for 7 days. After 7 days of culture, the culture supernatant was collected and IL-6 secretion was measured by enzyme-linked immunosorbent assay (ELISA). This assay was performed using a mouse IL-6 ELISA kit (R&D).

TSLP = experiment: Auricular tissue TSLP ELISA, atopic dermatitis mice; format: in vivo, mouse; settings: day 7, topical application, control 317, vehicle 1533
Method: as §1
The mouse TSLP ELISA kit (R&D) was used for this measurement.

Treg cells = experiment: Treg cell activation in inflammation-induced mouse model (Foxp3 flow cytometry); format: in vivo; settings: DBA/1J mice, Freund's complete adjuvant + bovine type2 collagen; oral 10 mg/kg daily 20 days; thymus cells; vs vehicle group
Method: (§2) Equal volume mixtures of Freund's complete adjuvant and Bovine type2 collagen were administered to 6-week-old male DBA/1J mice (Japan SLC Inc.) at 0.1 mL (day 0 of the study). 21 days later, DBA/1J mice were again injected with 0.1 mL of the above mixture for secondary immunization. After the second immunization, mice were orally treated with 10 mg/kg of mangiferin 8a and 10 mg/kg of norathyriol daily for 20 days. 20 days later, thymus glands were harvested from mice and stained with anti-CD4, anti-CD25 and anti-Foxp3 antibodies, which are Treg cell markers, and expression of Foxp3 (CD4 positive and CD25 positive) was measured using BD LSRFortessa.

Th2 cells = experiment: Th2 cell activation in inflammation-induced mouse model (IL-4 flow cytometry); format: in vivo; settings: DBA/1J mice, Freund's complete adjuvant + bovine type2 collagen; oral 10 mg/kg daily 20 days; thymus cells; vs vehicle group
Method: as §2, with “anti-CD4” for “anti-CD4, anti-CD25”, “anti-IL-4” for “anti-Foxp3”, “Th2” for “Treg”, “IL-4” for “Foxp3”, “(CD4” for “(CD4 positive and CD25”

NIK = target: T1, NIK (Mus musculus, UniProt Q9WUL6); experiment: LPS-induced NIK activation in B cells (Western blotting, phospho-NIK); format: cell-based; settings: 10 μM compound 23 h, then 10 μg/mL LPS 1 h
T1 construct: Proteins were extracted with cell lysate and used as samples; endogenous in cells; host or cells: primary splenic B cells from 6-week-old male Balb/c mice
T1 sequence (Q9WUL6 whole entry): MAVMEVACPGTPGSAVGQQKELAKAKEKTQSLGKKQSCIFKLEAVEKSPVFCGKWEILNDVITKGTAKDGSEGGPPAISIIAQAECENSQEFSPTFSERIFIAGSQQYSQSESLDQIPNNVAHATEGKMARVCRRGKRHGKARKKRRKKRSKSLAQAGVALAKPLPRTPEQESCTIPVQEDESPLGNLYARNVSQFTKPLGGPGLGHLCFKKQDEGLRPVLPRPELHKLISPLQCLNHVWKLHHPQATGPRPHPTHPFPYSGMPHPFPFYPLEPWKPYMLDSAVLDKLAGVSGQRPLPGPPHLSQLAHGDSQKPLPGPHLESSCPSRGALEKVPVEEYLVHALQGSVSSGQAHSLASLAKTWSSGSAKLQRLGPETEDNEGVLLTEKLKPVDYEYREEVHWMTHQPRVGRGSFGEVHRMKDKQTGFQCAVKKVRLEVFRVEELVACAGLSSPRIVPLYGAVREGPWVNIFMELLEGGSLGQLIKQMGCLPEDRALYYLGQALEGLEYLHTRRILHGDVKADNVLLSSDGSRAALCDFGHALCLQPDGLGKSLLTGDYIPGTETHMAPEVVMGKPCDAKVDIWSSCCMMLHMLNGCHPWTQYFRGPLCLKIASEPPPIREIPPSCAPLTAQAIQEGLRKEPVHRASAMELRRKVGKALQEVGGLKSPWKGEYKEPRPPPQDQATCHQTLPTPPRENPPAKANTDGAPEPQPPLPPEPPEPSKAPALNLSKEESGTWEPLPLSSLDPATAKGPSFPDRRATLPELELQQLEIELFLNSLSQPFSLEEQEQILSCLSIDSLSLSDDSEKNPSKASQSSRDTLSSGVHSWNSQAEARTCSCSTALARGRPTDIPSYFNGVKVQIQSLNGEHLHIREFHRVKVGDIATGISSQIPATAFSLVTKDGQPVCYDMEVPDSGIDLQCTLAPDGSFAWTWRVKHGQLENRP
Method: Spleens were harvested from 6-week-old male Balb/c mice and B cells were isolated. After isolation, the cells were seeded in […] dish and cultured in RPMI 1640 medium for 1 day and used as control. In addition, B cells were seeded into 100 mm^2 dish, and after 1 day of culture, 10 μg/mL LPS was added and cultured for 1 h. Furthermore, B cells were seeded in […] dish, and after 1 day of culture, 10 μM mangiferin 8a and 10 μM norathyriol were added to B cells, and after 23 h, 10 μg/mL LPS was added to each, and the cells were incubated for 1 h. All were incubated at 37° C. and 5% CO2.
Proteins were extracted with cell lysate and used as samples. Each sample was transferred to a PVDF membrane after SDSPAGE and assayed with anti-phospho-NIK, anti-NIK, anti-NF-κB p52, anti-NF-κB p65 and anti-Lamin antibodies.
The antibody species is indicated in the vertical direction. Specifically, in the case of anti-phospho-NIK antibody (described as “Phospho-NIK”), anti-NIK antibody (described as “NIK”), anti-NF-κB p52 antibody (described as “NF-κB p52 nuclear”), anti-NF-κB p65 antibody (described as “NF-κB p65 nuclear”) and anti-Lamin antibody (described as “Lamin”).

[1] = test system: Monocytes collected from mice; experiment: LPS-induced M1 macrophage activation (CD80 flow cytometry); format: cell-based, mouse; settings: 10 μM compound, 10 μg/mL LPS, 10 days; vs LPS-added group
Method: Monocytes collected from mice were cultured in RPMI 1640 medium for 1 day. Then, 10 μM mangiferin 8a and 10 μM norathyriol were added to Monocytes, and after 1 day of culture, 10 μg/mL of LPS was added, followed by 10 days of culture. After 10 days of culture, cells were stained with anti-CD11b and anti-F4/80 antibodies, markers of macrophages, and anti-CD80 antibody, marker of M1 macrophages, and CD80 (CD11b positive and F4/80 positive) expression was measured using BD LSRFortessa.

## O=c1c2cc(O)c(O)cc2oc2cc(O)cc(O)c12 [norathyriol, 1,3,6,7-tetrahydroxyxanthone]
IgE antibody
  amount of IgE antibody: 1692 ng/mL
TNFα
  TNFα secretion: 68.13 pg/mL
IL-6
  IL-6 secretion: 61.39 pg/mL
TSLP
  TSLP secretion: 1026 pg/mL
Treg cells
  Foxp3 expression (CD4 positive and CD25 positive): slightly increased
Th2 cells
  IL-4 expression (CD4 positive): markedly reduced
NIK
  phospho-NIK band (immunoblotting): fainter
[1]
  CD80 expression (CD11b positive and F4/80 positive): markedly reduced
